Experimental data as given in the PolyMetriX glass transition set.
± gives the standard deviation of the reports.

Structure (SMILES)	glass transition temperature [°C]
*Oc1c(F)c(F)c(-c2c(F)c(F)c(Oc3ccc(Cc4ccc(*)c(C=O)c4)cc3C=O)c(F)c2F)c(F)c1F (repeat unit)	198.00
*CCCCCOc1ccc(/C=C/C(=O)OCCN(CCOC(=O)/C=C/c2ccc(O*)cc2)c2ccc(/N=N/c3ccc([N+](=O)[O-])cc3)cc2)cc1 (repeat unit)	92.00
*c1ccc2c(c1)C(=O)N(c1ccc(Oc3ccc(N4C(=O)c5ccc(C(*)(C(F)(F)F)C(F)(F)F)cc5C4=O)cc3)c(OCCN(CC)c3ccc(/N=N/c4ccc([N+](=O)[O-])cc4)cc3)c1)C2=O (repeat unit)	202.00
*CC(*)c1ccccc1COCCCCCCCC (repeat unit)	13.00
*CC(*)(C)C(=O)OCc1ccc(OCCOCCOCCOCC)c(OCCOCCOCCOCC)c1 (repeat unit)	-92.00
*CCN(CCOC(=O)CCC#CC#CCCC(=O)O*)c1ccc([N+](=O)[O-])cc1 (repeat unit)	30.00
*CC(C)(C)C(=O)O* (repeat unit)	-12.00
*CCCCCCCCCCCCCCCCCCNC(=O)CCCCCCCCCCCCCCCCC(=O)N* (repeat unit)	50.00
*CC(*)OCC (repeat unit) [Poly(ethyl vinyl ether)]	-26.58 ± 9.8
*C(=O)c1ccc2c(c1)C(=O)N(c1ccc(C(=O)Nc3cccc(N4C(=O)c5ccc(*)cc5C4=O)c3)cc1)C2=O (repeat unit)	311.00
*CC(*)OCC(C)(C)CC (repeat unit)	9.00
*c1ccc(C2(c3ccc(-c4cc(-c5ccccc5)c5cc(-c6ccc7nc(*)cc(-c8ccccc8)c7c6)ccc5n4)cc3)c3ccccc3-c3ccccc32)cc1 (repeat unit)	420.00
*CCN(*)C(=O)CCCC (repeat unit)	13.00
*CC(C)(C)C1C(=O)N(c2c(CC)cccc2CC)C(=O)C1* (repeat unit)	210.00
*C/C=C/N(/C=C/CC1CC(=O)N(c2ccc(Cc3ccc(N4C(=O)CC(*)C4=O)cc3)cc2)C1=O)c1ccc(/N=N/c2ccc([N+](=O)[O-])cc2)cc1 (repeat unit)	277.00
*c1ccc(Oc2ccc(/C=C/c3ccc(Oc4ccc(-c5nnc(*)o5)cc4)cc3)cc2)cc1 (repeat unit)	215.00
*C1CCC(*)C1 (repeat unit)	65.10
*CC(*)(C)C(=O)OCc1cccc(Cl)c1Cl (repeat unit)	42.60
*CCCCCCCc1nc2ccc(-c3ccc4nc(*)oc4c3)cc2o1 (repeat unit)	85.00
*c1ccc(-c2nc3cc(Oc4ccc5nc(*)c(-c6ccccc6)nc5c4)ccc3nc2-c2ccccc2)cc1 (repeat unit)	326.00
*CC/C=[C](/*)[Sn]([CH2]CCC)([CH2]CCC)[CH2]CCC (repeat unit)	-80.00

Structure (SMILES)	glass transition temperature [°C]
*Nc1ccc(*)cc1OCCCCCCCCCCCCCCCC (repeat unit)	92.00
*SSc1ccc(/N=C/Nc2ccc(*)cc2)cc1 (repeat unit)	98.00
*c1ccc(Oc2ccc(C(=O)c3ccc(-c4ccc(C(=O)c5ccc(Oc6ccc(-c7nc(-c8ccc(-c9nc(*)c(-c%10ccccc%10)[nH]9)cc8)[nH]c7-c7ccccc7)cc6)cc5)cc4)cc3)cc2)cc1 (repeat unit)	273.00
*c1ccc(Oc2ccc(N3C(=O)c4ccc(Oc5ccc(C(c6ccc(Oc7ccc8c(c7)C(=O)N(*)C8=O)cc6)(C(F)(F)F)C(F)(F)F)cc5)cc4C3=O)cc2)cc1 (repeat unit)	226.50 ± 43
*CCC(C)CC(=O)O* (repeat unit)	-71.50
*c1c(C)cc(Cc2cc(C)c(N3C(=O)c4ccc(Oc5ccc(C(C)(C)c6ccc(Oc7ccc8c(c7)C(=O)N(*)C8=O)cc6)cc5)cc4C3=O)c(C)c2)cc1C (repeat unit)	247.00
*CCCCOC(=O)CCC(=O)O* (repeat unit)	-32.00
*c1ccc(Oc2ccc(C(C)(C)c3ccc(Oc4ccc(-c5cccc(*)n5)cc4C(F)(F)F)cc3)cc2)c(C(F)(F)F)c1 (repeat unit)	125.00
*O[Si](C)(C)O[Si](C)(C)O[Si](C)(C)O[Si](C)(c1ccccc1)c1cccc([Si](*)(C)c2ccccc2)c1 (repeat unit)	-42.00
*CCCCCCN(C)C(=O)CCC(=O)N(*)C (repeat unit)	7.50
*CCCCCCOc1c(OC)cc(/C=C2\CCC/C(=C\c3cc(OC)c(O*)c(OC)c3)C2=O)cc1OC (repeat unit)	71.00
*c1cc(C)c(Cc2cc(C)c(N3C(=O)c4ccc(Oc5ccc(Oc6ccc7c(c6)C(=O)N(*)C7=O)cc5)cc4C3=O)cc2C)cc1C (repeat unit)	278.00
*CC(*)c1cc(-c2ccc(C(=O)OC3CC(C)CCC3C(C)C)cc2)ccc1-c1ccc(C(=O)OC2CC(C)CCC2C(C)C)cc1 (repeat unit)	217.50
*C(=O)c1ccc(N(*)CCCC)cc1 (repeat unit)	124.00
*Oc1c(F)c(F)c(Sc2c(F)c(F)c(Oc3ccc(C(c4ccc(*)cc4)(C(F)(F)F)C(F)(F)F)cc3)c(F)c2F)c(F)c1F (repeat unit)	141.50
*C(=O)Nc1ccc(C2(c3ccc(N4C(=O)c5ccc(*)cc5C4=O)cc3)CCCCC2)cc1 (repeat unit)	319.00
*CNC(=O)OCc1cocc1COC(=O)NCc1ccc(C(C)(C)c2ccc(*)o2)o1 (repeat unit)	25.00
*CC(*)C(C)=O (repeat unit)	115.00
*CC(COC(C)(C)C)O* (repeat unit)	-24.00
*CCCCCCOC(=O)OCCCCCCN1C(=O)c2ccc(-c3ccc4c(c3)C(=O)N(*)C4=O)cc2C1=O (repeat unit)	71.00
*C(=O)c1ccc2c(c1)C(=O)N(c1ccc(C(=O)c3ccc(Cc4ccc(C(=O)c5ccc(N6C(=O)c7ccc(*)cc7C6=O)cc5)cc4)cc3)cc1)C2=O (repeat unit)	285.50

Second part, the molecule after the results:

glass transition temperature [°C]	Structure (SMILES)
173.00	*Oc1ccc(-c2ccc(Oc3ccc(C(=O)c4ccc(C(=O)c5ccc(*)cc5)cc4)cc3)cc2)cc1 (repeat unit)
142.00	*=Nc1ccc(Cc2ccc(NC(=*)C)cc2)cc1 (repeat unit)
133.00	*Oc1ccc(/N=C/C=N/c2ccc(OC(=O)Nc3ccc(Cc4ccc(NC(*)=O)cc4)cc3)cc2)cc1 (repeat unit)
225.00	*C(=O)Oc1ccc(C(C)(C)c2ccc(OC(=O)c3ccc4c(c3)C(=O)N(c3ccc(O)c(N5C(=O)c6ccc(*)cc6C5=O)c3)C4=O)cc2)cc1 (repeat unit)
62.00	*CCOCCOc1ccc(N/C=N/c2ccc(O*)cc2)cc1 (repeat unit)
127.00	*OS(=O)(=O)c1cccc(S(=O)(=O)Oc2ccc(C3(c4ccc(*)cc4)CCCCC3)cc2)c1 (repeat unit)
335.00	*Oc1ccc(C2(c3ccc(OC(=O)C45CC6CC(CC(C(*)=O)(C6)C4)C5)cc3)c3ccccc3-c3ccccc32)cc1 (repeat unit)
109.00	*CC(*)(C)C(=O)OCCOc1ccc(/N=N/c2ccc(C#N)cc2)cc1 (repeat unit)
137 ± 0.6	*Oc1ccc(C(C)(CCC)c2ccc(OC(*)=O)cc2)cc1 (repeat unit) [Poly[2,2-pentane bis(4-phenyl)carbonate]]
173.00	*CCN(CCOC(=O)c1ccc(C(=O)O*)c(OC)c1)c1ccc(/N=N/c2ccc(/C=C/c3nc4ccc([N+](=O)[O-])cc4n3CC)cc2)cc1 (repeat unit)
80.50	*C(=O)OCCCCCCOC(=O)c1ccc(N2C(=O)c3ccc(*)cc3C2=O)cc1 (repeat unit)
54.50	*Oc1ccc(CC(NC(=O)CCc2ccc(OC(=O)CCCCC(*)=O)cc2)C(=O)OCc2ccccc2)cc1 (repeat unit)
172.00	*c1ccc(Cc2ccc(N3C(=O)C(Cl)=C(Oc4ccc(C(C)(C)c5ccc(OC6=C(Cl)C(=O)N(*)C6=O)cc5)cc4)C3=O)cc2)cc1 (repeat unit)
65.00	*CCCCCCCCCCCCCCCCCCNC(=O)CCc1ccc(CCC(=O)N*)cc1 (repeat unit)
71.00	*CCCOCCCCOCCCN1C(=O)c2ccc(C(=O)Oc3ccc(OC(=O)c4ccc5c(c4)C(=O)N(*)C5=O)c(-c4ccccc4)c3)cc2C1=O (repeat unit)
207.00	*Oc1ccc(S(=O)(=O)c2ccc(Oc3ccc(C(C)(c4ccccc4)c4ccc(*)cc4)cc3)cc2)cc1 (repeat unit)
180.00	*Oc1cccc2ccc(Oc3ccc(NC(=O)c4ccc(Oc5ccccc5Oc5ccc(C(=O)Nc6ccc(*)cc6)cc5)cc4)cc3)cc12 (repeat unit)
145.00	*c1ccc(Nc2cccc(Nc3ccc(S(*)(=O)=O)cc3)c2)cc1 (repeat unit)
54.00	*Oc1ccc(CC(NC(=O)Cc2ccc(OC(=O)CCCCCCC(*)=O)cc2)C(=O)OCC)cc1 (repeat unit)
27.80	*CCCCCCCCOc1ccc(C(c2ccc(O*)cc2)(C(F)(F)F)C(F)(F)F)cc1 (repeat unit)
134.00	*Oc1ccc(C2(c3ccc(OC(=O)CCCCCCCCC(*)=O)cc3)c3ccccc3Cc3ccccc32)cc1 (repeat unit)
61.00	*Oc1ccc(CC(NC(=O)CCc2ccc(OC(=O)CCCCC(*)=O)cc2)C(=O)OCC)cc1 (repeat unit)
257.50	*Nc1ccc(NC(=O)c2cccc(C(=O)c3ccc(C(*)=O)cc3)c2)cc1 (repeat unit)
147.00	*CCN(CCOC(=O)Nc1cccc(NC(=O)O*)c1C)c1ccc(/N=N/c2ccc([N+](=O)[O-])cc2)cc1 (repeat unit)
-13.00	*CCCCCCOC(=O)OCCCCCCCCCCOC(=O)OCCCCCCOc1ccc(C(=O)c2ccc(O*)cc2)cc1 (repeat unit)
115.00	*Nc1ccc(CCNC(=O)CCCCC(*)=O)cc1 (repeat unit)
